# In ChEMBL document CHEMBL1159375, “Absolute configuration and complete assignment of 13C NMR data for new sesquiterpenes from Maytenus chiapensis” (2003):
# Test system: Leishmania tropica
# Test: Growth inhibition of multidrug-resistant Leishmania tropica overexpressing P-glycoprotein-like transporter at 60 uM
# Format: functional
# Parameters: scale not given: the % may be the effect or the level left
structure (smiles),measurement,value
CC(=O)OC[C@]12[C@H](OC(C)=O)C(=O)[C@@H]3[C@@H](OC(C)=O)[C@]1(O[C@@]3(C)COC(C)=O)[C@@](C)(O)[C@@H](OC(C)=O)[C@H](OC(C)=O)[C@@H]2OC(C)=O,Activity,28%
